The source of these data is ChEMBL document CHEMBL1201862, “PubChem BioAssay data set” (2004).

Some test systems named below: CCRF-CEM; EKVX; HCC 2998; HCT-116; HL-60; IGROV-1; K562; LOX IMVI; OVCAR-4; OVCAR-5; RPMI-8226; SF-268; SF-295; SK-MEL-2; SK-OV-3; SW-620; A498.
Common to all, as to experiment: NCI anticancer screen, dose series, 48 h

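Dose response: 5 concentrations. Exposure: 48 h. Format: 96-well plates. Endpoint: linear interpolation; highest concentration if not reached. GI50 marks 50% less growth.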 The source made the active and inactive calls. No stated cut-off is given here; in the data, active = GI50 up to about 1.1 µM and inactive = higher.

Regarding `N=C1SCCS1`, the GI50 in the test with CCRF-CEM, with EKVX, with HCC 2998, in the test on HCT-116, in the test with HL-60 and with IGROV-1 was > 100 µM (inactive) throughout. In addition, the GI50 in the test on K562, in the test with LOX IMVI, in the test on OVCAR-4, in the test with OVCAR-5, in the test with RPMI-8226 and in the test on SF-268 was > 100 µM (inactive) throughout. Besides, the GI50 in the test on SF-295, in the test on SK-MEL-2, in the test on SK-OV-3 and with SW-620 was > 100 µM (inactive) throughout.

Regarding `C=C(Br)C(C)(Br)CCC(Br)C(C)(C)Br` (stereo unspecified), the GI50 in the test with CCRF-CEM was 15 µM (inactive); with HCT-116, 21.2 µM (inactive); with HL-60, 23.1 µM (inactive); in the test with IGROV-1 it was 19.7 µM (inactive); with K562, 21.4 µM (inactive); in the test on LOX IMVI, 16.5 µM (inactive). The GI50 in the test with OVCAR-4 is 39.4 µM (inactive); with OVCAR-5, 35.5 µM (inactive); with RPMI-8226, 21.7 µM (inactive); in the test with SF-268, 30.2 µM (inactive); with SF-295, 26.5 µM (inactive); in the test on SK-MEL-2, 24.5 µM (inactive). In addition, the values for the GI50 in the test with SK-OV-3 and with SW-620 were 40.7 µM (inactive) and 28.4 µM (inactive), respectively.

For the compound `O=C1/C(=C\c2ccccc2)c2ccccc2N1/N=C\c1ccccc1`, the GI50 was > 100 µM (inactive) in the test on A498; 49.2 µM (inactive) in the test with CCRF-CEM; 23.2 µM (inactive) in the test with EKVX; 50.4 µM (inactive) in the test with HCC 2998; 77.4 µM (inactive) in the test with HCT-116; > 100 µM (inactive) with IGROV-1. Besides, the GI50 with K562 was 42.7 µM (inactive); in the test with LOX IMVI it was > 100 µM (inactive); in the test with OVCAR-4, > 100 µM (inactive); in the test with OVCAR-5 it was > 100 µM (inactive); with RPMI-8226, 57.3 µM (inactive); with SF-268, > 100 µM (inactive). Moreover, the GI50 with SF-295 is > 100 µM (inactive); in the test with SK-MEL-2 it was > 100 µM (inactive); with SK-OV-3, > 100 µM (inactive); in the test with SW-620 it was 59 µM (inactive).

For the compound `COc1ccccc1/C=C(\NC(=O)c1ccccc1)c1nc2ccc(Cl)cc2[nH]1`, the GI50 in the test on A498 is 25.4 µM (inactive); in the test on CCRF-CEM, 21.7 µM (inactive); with EKVX, 29.5 µM (inactive); with HCT-116 it was 29 µM (inactive); in the test with IGROV-1, 26.9 µM (inactive); in the test on K562 it was 27.4 µM (inactive). The GI50 in the test with LOX IMVI is 37.2 µM (inactive); in the test with OVCAR-4, 22.9 µM (inactive); with OVCAR-5, 38 µM (inactive); in the test with RPMI-8226, 9.64 µM (inactive); in the test with SF-268, 30.3 µM (inactive); in the test on SK-MEL-2, 25.6 µM (inactive). For the same compound, the values for the GI50 in the test with SK-OV-3 and in the test on SW-620 were 37.2 µM (inactive) and 29.9 µM (inactive), respectively.

As for `CC1=CCN(c2ccccn2)OC1c1ccccc1` (stereo unspecified), the GI50 with CCRF-CEM is > 100 µM (inactive); with EKVX, > 100 µM (inactive); in the test on HCC 2998, > 100 µM (inactive); with HCT-116, > 100 µM (inactive); in the test with HL-60, 66.8 µM (inactive); in the test on IGROV-1, > 100 µM (inactive). In addition, the GI50 in the test on K562 was > 100 µM (inactive); with LOX IMVI, > 100 µM (inactive); with OVCAR-4, > 100 µM (inactive); in the test on OVCAR-5, 59.8 µM (inactive); in the test on RPMI-8226, 66.8 µM (inactive); in the test on SF-268, > 100 µM (inactive). The GI50 in the test with SF-295, in the test on SK-MEL-2, with SK-OV-3 and in the test with SW-620 was > 100 µM (inactive) each time.

Take `O=C1N=C2Sc3ccc4ccccc4c3N2C1=O`: the GI50 with CCRF-CEM is 31.3 µM (inactive); in the test on EKVX, 16.1 µM (inactive); in the test on HCC 2998 it was 27 µM (inactive); in the test on HCT-116, 17.7 µM (inactive); with HL-60, 43.6 µM (inactive); with IGROV-1, 19.1 µM (inactive). For the same compound, the GI50 is 33 µM (inactive) in the test on K562; 19.2 µM (inactive) with LOX IMVI; 17 µM (inactive) in the test on OVCAR-4; 50.7 µM (inactive) in the test with OVCAR-5; > 100 µM (inactive) in the test with RPMI-8226; 24.7 µM (inactive) in the test on SF-268. Moreover, the GI50 was 18.6 µM (inactive) in the test with SF-295, 26.4 µM (inactive) with SK-MEL-2, 15.5 µM (inactive) in the test with SK-OV-3 and 21.4 µM (inactive) in the test with SW-620.

For `CC1(C)COC(C23C4C5C2C2C3C4C52I)=N1` (stereo unspecified), the GI50 in the test on A498, with CCRF-CEM, in the test on EKVX, in the test on HCC 2998, in the test with IGROV-1 and with K562 was > 100 µM (inactive) throughout. The GI50 in the test on OVCAR-4, in the test on OVCAR-5, with RPMI-8226, in the test with SF-268, in the test on SF-295 and with SK-OV-3 was > 100 µM (inactive) each time. Further, in the test on SW-620, the GI50 is > 100 µM (inactive).

For the compound `CCOC(=O)C1C(=O)c2cccc(OC)c2C2COC(=O)N12` (stereo unspecified), the GI50 in the test on CCRF-CEM, in the test with EKVX, with HCC 2998, in the test with HCT-116, in the test on HL-60 and in the test with IGROV-1 was > 100 µM (inactive) each time. The GI50 in the test on K562, in the test with LOX IMVI, with OVCAR-4, with OVCAR-5, in the test on RPMI-8226 and in the test with SF-268 was > 100 µM (inactive) in each case. For the same compound, the GI50 in the test with SF-295, with SK-MEL-2, in the test with SK-OV-3 and in the test on SW-620 was > 100 µM (inactive) each time.

Take `O=c1[nH]nc(-c2ccccc2)c(-c2ccccc2)c1-n1nc(-c2ccccc2)c2ccccc2c1=O`: the GI50 with A498 is > 100 µM (inactive); in the test on CCRF-CEM, 27.9 µM (inactive); with EKVX, > 100 µM (inactive); in the test on HCC 2998 it was > 100 µM (inactive); with HCT-116, 83.9 µM (inactive); in the test on IGROV-1, > 100 µM (inactive). Moreover, the GI50 in the test on K562 is 27.9 µM (inactive); with OVCAR-4, > 100 µM (inactive); in the test with OVCAR-5, > 100 µM (inactive); in the test on RPMI-8226 it was 32 µM (inactive); in the test with SF-268 it was > 100 µM (inactive); in the test with SF-295 it was 43.2 µM (inactive). For the same compound, the GI50 is 69 µM (inactive) in the test with SK-MEL-2, > 100 µM (inactive) in the test on SK-OV-3 and 99.5 µM (inactive) in the test with SW-620.

Regarding `COc1cc2c(c(OC)c1OC)-c1ccc(SC)c(=O)cc1[C@@H](NCc1cccc([N+](=O)[O-])c1)CC2`, the GI50 in the test with CCRF-CEM, in the test on EKVX, with HCC 2998, in the test on HCT-116, in the test on HL-60 and in the test on IGROV-1 was < 0.01 µM (active) in each case. Also, the GI50 is < 0.01 µM (active) in the test on K562; < 0.01 µM (active) with LOX IMVI; < 0.01 µM (active) with OVCAR-4; > 100 µM (inactive) in the test on OVCAR-5; < 0.01 µM (active) in the test on SF-268; < 0.01 µM (active) in the test with SF-295. The GI50 in the test on SK-MEL-2, with SK-OV-3 and in the test with SW-620 was < 0.01 µM (active) each time.
